{
  "source": "patent US20260048003A1",
  "about": "“STABLE CYCLODEXTRIN FREE CARFILZOMIB FORMULATION” (AMGEN INC., priority 2020, published 2026)",
  "assay_type_in_all_cases": "physicochemical",
  "key": {"[1]": {"assay": "Aqueous phase solvents screening to dissolve CFZ-API to about 2 mg/ml (visual, RP-HPLC after filtration)", "details": "aqueous solution around pH 3.0 to 3.5 (methane sulfonic acid) with 10,000 MW PVP", "description": "In Step 1 of the flow scheme preparation, non-aqueous solvents consisting of water miscible organic solvents and a co-solvent system were first added to dissolve the CFZ-API solid due its very low water solubility. […] The solution was then filtered by using 0.22 μm PES syringe filter equipped on a NORMJECT® (silicone free) syringe. The resulting filtrate was then checked for CFZ-API solubility recovery and stability on reverse phase high performance liquid chromatography (RP-HPLC). RP-HPLC was used to determine peak degradation as well as CFZ-API recovery through the use of a 3 to 5 point reference standard curve. Peak integration of standards was taken against standard buffer, 50% acetonitrile in water; while peak integration of formulation samples was taken against buffer of the formulation."}, "[2]": {"assay": "Organic water miscible solvent screening to dissolve CFZ-API at high concentration", "details": "in NMP and DMSO", "protocol": "Non-aqueous phase: (a) 200 mg/ml to 250 mg/ml of CFZ-API target concentration for the water miscible solvent screening; and (b) 20 to 50 mg/ml of CFZ-API target concentration for the co-solvent screening; and Aqueous phase: about 2 mg/ml target CFZ-API final concentration.\nSince CFZ-API is extremely insoluble in water, various organic water miscible solvents were first screened to dissolve CFZ-API drug substance powder."}, "[3]": {"assay": "Visual observation of the cyclodextrin-free CFZ-API sample formulation (FIG. 1)", "details": "CFZ-API 2 mg/ml in water in the presence of phosphate buffer solution (PBS)", "source_text": "FIG. 1 illustrates a visual comparison of carfilzomib active ingredient in (a) water, (b) cyclodextrin (CAPTISOL®) and cyclodextrin-free formulation of the present invention\nCarfilzomib (CFZ) is a proteasomal inhibitor and active ingredient of KYPROLIS®, a lyophilized drug product which is for the treatment of multiple myeloma. The current commercial formulation of KYPROLIS contains CAPTISOL®, which is a cyclodextrin used to help solubility the CFZ-API. The present invention provides a stable, cyclodextrin-free formulations for CFZ-API in an aqueous solution which is suitable for injection. FIG. 1 illustrates (a) insoluble CFZ-API in water in the presence of phosphate buffer solution (PBS) (left vial); (b) current commercial KYPROLIS formulation containing CAPTISOL (middle vial); and (c) the cyclodextrin free formulation of the invention (right vial). Each sample contains CFZ-API concentration of 2 mg/ml."}, "[4]": {"assay": "Lyophilization and bulking agent screening", "protocol": "1 mL CFZ-API liquid formulation fill as prepared above in 3 mL Schott 1A glass vial was loaded into a VirTis Genesis 12 EL lyophilizer (TS Systems LyoStar™-3, SP Scientific, Warminster, PA). The lyophilization cycle used for screening bulking agents consisted of holding shelf temperature at 4° C. for 30 minutes then cooling the shelf to −45° C. at 0.2° C./min. The annealing step was then performed at from −45° C. to −12° C. at 0.3° C./min. The primary drying and secondary drying shelf temperatures were −25° C. and 25° C., respectively. The heating rate applied to the primary and secondary drying were 0.2° C./min and 0.1° C./min, respectively.\nTable 5 describes the initial lyophilization study results of formulations containing bulking agents such as PVP 12,000 MW, mannitol, or glycine pre and post lyophilization. PVP was selected as a co-solubilizing agent candidate because of high solubility of CFZ-API in PVP pre and post lyophilization as discussed above. […]\nResults from the lyophilization and bulking agent screening produced mostly poor lyophilized cakes, however two selected bulking agent provided cakes that looked better in overall drug product presentation. […] The CFZ-API recovery of 1.8 mg/ml was lower than the expected of 2 mg/ml possibly due to the other components of the powder absorbing the water, making it more dilute than theoretically measured."}},
  "data": [
    {"smiles": "CC(C)C[C@H](NC(=O)[C@H](CCc1ccccc1)NC(=O)CN1CCOCC1)C(=O)N[C@@H](Cc1ccccc1)C(=O)N[C@@H](CC(C)C)C(=O)[C@@]1(C)CO1", "note": "[CFZ-API, Carfilzomib]", "values": [
      {"measurement": "CFZ-API solubilized", "setting": "[1]", "value": "≥ 90", "unit": "%"},
      {"measurement": "CFZ-API solubility", "setting": "[2]", "value": "highly soluble"},
      {"measurement": "Visual observation (FIG. 1)", "setting": "[3]", "value": "insoluble"},
      {"measurement": "CFZ-API solubility trend with PVP concentration", "setting": "[4]; PVP 10% to 40%", "value": "higher CFZ-API solubility"},
      {"measurement": "CFZ-API solubility trend with PVP molecular weight", "setting": "[4]; PVP 10,000, 12,000 and 17,000 MW", "value": "more soluble in lower MW PVP"}
    ]}
  ]
}
